The text below walks through data of US20090105305A1, “Therapeutic Agents - 550” (AstraZeneca AB, priority 2006, published 2009).

In the assay the target is T1, human Fatty Acid Synthase (Homo sapiens, UniProt P49327).
T1 construct: made in house
The assay is described as follows: Human FAS enzyme assay (decrease in NADPH fluorescence). In kind it is biochemical. The conditions noted are these: for inhibition at 100 µM: % inhibition at a concentration of 100 micromolar; for IC50s in the range of about 0.001 μM to about 30 μM: compounds excluded from the claims by proviso; for IC50: unit inferred. In a few lines: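 In-house human FAS (0.4 μg) was preincubated 15 min at RT with compound and NADPH (added at 166.6 μM) in 0.1 M Tris pH 7.5, 1 mM glutathione, 0.05% BSA. Malonyl-/acetyl-CoA (500/150 μM in substrate mix) was then added for 60 min. Readout was NADPH fluorescence loss (ex 340/em 460) over a time-zero read, with IC50 from a sigmoid fit.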

T1 sequence (P49327 whole entry): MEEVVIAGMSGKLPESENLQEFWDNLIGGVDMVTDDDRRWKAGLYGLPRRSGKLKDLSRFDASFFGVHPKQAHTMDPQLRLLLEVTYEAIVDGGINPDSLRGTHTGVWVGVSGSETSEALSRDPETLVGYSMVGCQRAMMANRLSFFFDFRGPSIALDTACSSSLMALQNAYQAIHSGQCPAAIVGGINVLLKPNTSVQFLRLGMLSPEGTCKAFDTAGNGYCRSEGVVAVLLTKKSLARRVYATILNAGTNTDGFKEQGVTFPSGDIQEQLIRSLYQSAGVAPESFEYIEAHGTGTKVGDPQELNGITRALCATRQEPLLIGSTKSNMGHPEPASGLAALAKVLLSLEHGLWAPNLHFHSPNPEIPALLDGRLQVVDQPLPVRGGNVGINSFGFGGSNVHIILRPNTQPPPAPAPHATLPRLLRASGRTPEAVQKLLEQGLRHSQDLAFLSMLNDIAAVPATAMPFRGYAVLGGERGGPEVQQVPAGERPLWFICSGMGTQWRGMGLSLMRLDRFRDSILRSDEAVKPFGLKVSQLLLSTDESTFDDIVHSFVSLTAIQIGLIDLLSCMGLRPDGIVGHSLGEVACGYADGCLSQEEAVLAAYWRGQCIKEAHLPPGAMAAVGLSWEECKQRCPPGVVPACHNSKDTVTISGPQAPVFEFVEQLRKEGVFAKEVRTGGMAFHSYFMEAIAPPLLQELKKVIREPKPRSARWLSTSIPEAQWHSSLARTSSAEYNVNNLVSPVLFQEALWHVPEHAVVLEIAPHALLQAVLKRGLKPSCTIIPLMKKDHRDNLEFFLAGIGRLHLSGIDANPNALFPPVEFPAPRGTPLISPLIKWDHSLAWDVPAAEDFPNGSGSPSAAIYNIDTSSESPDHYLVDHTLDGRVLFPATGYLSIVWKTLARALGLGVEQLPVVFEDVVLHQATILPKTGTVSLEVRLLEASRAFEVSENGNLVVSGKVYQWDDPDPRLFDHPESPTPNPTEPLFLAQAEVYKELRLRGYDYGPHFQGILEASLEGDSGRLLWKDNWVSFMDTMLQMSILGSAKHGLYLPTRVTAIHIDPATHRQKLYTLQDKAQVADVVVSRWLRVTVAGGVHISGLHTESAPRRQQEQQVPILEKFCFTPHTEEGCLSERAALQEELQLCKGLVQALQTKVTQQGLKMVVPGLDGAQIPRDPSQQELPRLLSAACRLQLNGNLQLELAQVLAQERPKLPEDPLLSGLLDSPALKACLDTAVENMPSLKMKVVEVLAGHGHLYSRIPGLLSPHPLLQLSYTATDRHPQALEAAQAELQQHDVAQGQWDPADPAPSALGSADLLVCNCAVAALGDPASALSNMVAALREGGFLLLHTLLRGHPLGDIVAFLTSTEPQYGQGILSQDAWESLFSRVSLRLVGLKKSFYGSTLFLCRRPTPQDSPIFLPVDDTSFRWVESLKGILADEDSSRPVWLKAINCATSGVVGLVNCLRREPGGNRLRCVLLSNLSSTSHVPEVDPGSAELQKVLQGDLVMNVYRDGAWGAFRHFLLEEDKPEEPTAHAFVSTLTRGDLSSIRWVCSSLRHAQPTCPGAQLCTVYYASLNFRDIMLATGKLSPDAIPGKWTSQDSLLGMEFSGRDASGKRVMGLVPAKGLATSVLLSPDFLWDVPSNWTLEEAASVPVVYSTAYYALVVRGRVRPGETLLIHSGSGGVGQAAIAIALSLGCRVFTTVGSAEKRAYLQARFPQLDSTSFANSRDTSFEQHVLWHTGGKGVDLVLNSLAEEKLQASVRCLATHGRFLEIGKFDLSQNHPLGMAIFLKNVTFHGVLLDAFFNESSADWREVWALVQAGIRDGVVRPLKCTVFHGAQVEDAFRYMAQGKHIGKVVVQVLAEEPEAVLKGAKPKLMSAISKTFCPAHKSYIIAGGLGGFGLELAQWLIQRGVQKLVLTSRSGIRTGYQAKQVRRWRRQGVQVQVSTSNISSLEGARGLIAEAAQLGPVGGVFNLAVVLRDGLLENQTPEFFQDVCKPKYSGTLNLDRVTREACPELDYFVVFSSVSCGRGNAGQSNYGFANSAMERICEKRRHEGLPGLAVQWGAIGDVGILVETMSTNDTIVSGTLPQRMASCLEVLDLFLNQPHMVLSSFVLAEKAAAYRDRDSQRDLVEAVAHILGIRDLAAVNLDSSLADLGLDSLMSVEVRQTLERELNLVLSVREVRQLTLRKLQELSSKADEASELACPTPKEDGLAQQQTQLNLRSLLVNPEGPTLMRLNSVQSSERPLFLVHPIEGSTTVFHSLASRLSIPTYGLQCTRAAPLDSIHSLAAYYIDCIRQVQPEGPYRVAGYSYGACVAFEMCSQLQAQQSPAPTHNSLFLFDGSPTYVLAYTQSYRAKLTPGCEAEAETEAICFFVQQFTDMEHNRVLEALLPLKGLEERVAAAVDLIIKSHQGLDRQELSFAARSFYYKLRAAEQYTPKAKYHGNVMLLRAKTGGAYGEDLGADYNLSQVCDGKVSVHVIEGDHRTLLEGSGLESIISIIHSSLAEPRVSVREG

On to `COCCNc1ccc(S(=O)(=O)Nc2cc(C(=O)N3CCC(c4ccc(C#N)cc4)CC3)ccc2C)cn1` [Example 103, N-[5-[4-(4-cyanophenyl)piperidine-1-carbonyl]-2-methyl-phenyl]-6-(2-methoxyethylamino)pyridine-3-sulfonamide], for which the inhibition – broadly, the share of the control response that was lost under treatment – at 100 µM was 98%.
`Cc1ccc(NS(=O)(=O)c2cnoc2C)cc1C(=O)N1CCC(c2ccc(C#N)cc2)CC1` [Example 39, N-[3-[4-(4-cyanophenyl)piperidine-1-carbonyl]-4-methyl-phenyl]-5-methyl-1,2-oxazole-4-sulfonamide] registered an inhibition at 100 µM of 80%.
With `Cc1ccc(C(=O)N2CCC(c3ccc(N4CCCC4=O)cc3)CC2)cc1NS(C)(=O)=O` [N-[2-methyl-5-[4-[4-(2-oxopyrrolidin-1-yl)phenyl]piperidine-1-carbonyl]phenyl]methanesulfonamide], the “IC50s in the range of about 0.001 μM to about 30 μM” value is on record as “do not have IC50s in the range of about 0.001 μM to about 30 μM”.
Consider `Cc1ccc(NS(=O)(=O)c2cccc(C#N)c2)cc1C(=O)N1CCC(c2ccc(C#N)cc2)CC1` [Example 47, 3-cyano-N-[3-[4-(4-cyanophenyl)piperidine-1-carbonyl]-4-methyl-phenyl]benzenesulfonamide], for which the inhibition at 100 µM was 85%.
Take `Cc1ccc(NS(=O)(=O)CC(F)(F)F)cc1C(=O)N1CCC(c2ccc(C#N)cc2)CC1` [Example 55, N-[3-[4-(4-cyanophenyl)piperidine-1-carbonyl]-4-methyl-phenyl]-2,2,2-trifluoro-ethanesulfonamide]: 100 µM produced 79% inhibition.
The molecule `Cc1ccc(C(=O)N2CCC(c3ccc(C#N)cc3)CC2)cc1NS(=O)(=O)CC#N` [Example 212, 1-cyano-N-[5-[4-(4-cyanophenyl)piperidine-1-carbonyl]-2-methylphenyl]methanesulfonamide] showed an inhibition at 100 µM of 69%.
For `Cc1ccc(C(=O)N2CCC(c3ccc(C#N)cc3)CC2)cc1NS(=O)(=O)c1cn(C)nc1C` [Example 139, N-[5-[4-(4-cyanophenyl)piperidine-1-carbonyl]-2-methyl-phenyl]-1,3-dimethyl-pyrazole-4-sulfonamide], the inhibition at 100 µM was found to be 83%.
On the same count and under the same terms, with `CS(=O)(=O)Nc1cccc(C(=O)N2CCC(c3ccc(C#N)cc3)CC2)c1` [Example 203, N-[3-[4-(4-cyanophenyl)piperidine-1-carbonyl]phenyl]methanesulfonamide] the figure was 71%; with `Cc1ccc(NS(=O)(=O)C2CCCCC2)cc1C(=O)N1CCC(c2ccc(C#N)cc2)CC1` [Example 42, N-[3-[4-(4-cyanophenyl)piperidine-1-carbonyl]-4-methyl-phenyl]cyclohexanesulfonamide], 90%.
In turn, `CSc1ccc(C(=O)N2CCC(c3ccc(C#N)cc3)CC2)cc1NS(C)(=O)=O` [Example 159, N-[5-[4-(4-cyanophenyl)piperidine-1-carbonyl]-2-methylsulfanylphenyl]methanesulfonamide] displayed an inhibition at 100 µM of 80%.
Regarding `Cc1ccc(C(=O)N2CCC(c3ccc(C#CCCCO)cc3)CC2)cc1NS(C)(=O)=O` [Example 250, N-[5-[4-[4-(5-hydroxypent-1-ynyl)phenyl]piperidine-1-carbonyl]-2-methylphenyl]methanesulfonamide], the IC50 (in general, the concentration needed to halve the response being measured) is 1440 nM. In other words, the single-digit micromolar range.
For the molecule `Cc1ccc(C(=O)N2CCC(c3ccc(C#N)cc3)CC2)cc1NS(=O)(=O)c1c(C)noc1C` [Example 149, N-[5-[4-(4-cyanophenyl)piperidine-1-carbonyl]-2-methyl-phenyl]-3,5-dimethyl-1,2-oxazole-4-sulfonamide], the inhibition at 100 µM is 85%.
Turning to `CCc1ccc(C(=O)N2CCC(c3ccc(C#N)cc3)CC2)cc1NS(C)(=O)=O` [Example 123, N-[5-[4-(4-cyanophenyl)piperidine-1-carbonyl]-2-ethyl-phenyl]methanesulfonamide], the inhibition at 100 µM is 85%.
`Cc1ccc(C(=O)N2CCC(c3ccc(C#N)cc3)CC2)cc1NS(=O)(=O)CCN1C(=O)c2ccccc2C1=O` [Example 71, N-[5-[4-(4-cyanophenyl)piperidine-1-carbonyl]-2-methyl-phenyl]-2-(1,3-dioxoisoindol-2-yl)ethanesulfonamide] returned an inhibition at 100 µM of 100%.
The same measure, in the same setting: for `Cc1ccc(NS(=O)(=O)CC2CCCC2)cc1C(=O)N1CCC(c2ccc(C#N)cc2)CC1` [Example 43, N-[3-[4-(4-cyanophenyl)piperidine-1-carbonyl]-4-methyl-phenyl]-1-cyclopentyl-methanesulfonamide] the value was 93%; for `Cc1ccc(C(=O)N2CCC(c3ccc(S(N)(=O)=O)cc3)CC2)cc1NS(C)(=O)=O` [Example 186, 4-[1-(3-methanesulfonamido-4-methylbenzoyl)piperidin-4-yl]benzenesulfonamide], 99%; for `Cc1ccc(C(=O)N2CCC(c3ccc(C#N)cc3)CC2)cc1NS(=O)(=O)c1ccc2c(c1)CC(=O)N2` [Example 129, N-[5-[4-(4-cyanophenyl)piperidine-1-carbonyl]-2-methyl-phenyl]-2-oxo-1,3-dihydroindole-5-sulfonamide], 95%.
Turning to `Cc1ccc(C(=O)N2CCC(c3ccc(CC(=O)O)cc3)CC2)cc1NS(C)(=O)=O` [2-[4-[1-(3-methanesulfonamido-4-methylbenzoyl)piperidin-4-yl]phenyl]acetic acid], the “IC50s in the range of about 0.001 μM to about 30 μM” value was “do not have IC50s in the range of about 0.001 μM to about 30 μM”.
As for `Cc1ccc(C(=O)N2CCC(c3ccc(C#N)cc3)CC2)cc1NS(=O)(=O)CC1(C)NC(=O)NC1=O` (stereo in doubt) [Example 147, N-[5-[4-(4-cyanophenyl)piperidine-1-carbonyl]-2-methyl-phenyl]-1-[(4R)-4-methyl-2,5-dioxo-imidazolidin-4-yl]methanesulfonamide], the inhibition at 100 µM was 98%.
As to `Cc1ccc(C(=O)N2CCC(c3ccc([S+](C)[O-])cc3)CC2)cc1NS(C)(=O)=O` (stereo not drawn) [Example 182, N-[2-methyl-5-[4-(4-methylsulfinylphenyl)piperidine-1-carbonyl]phenyl]methanesulfonamide], 100 µM produced 80% inhibition.
In turn, `Cc1ccc(NS(=O)(=O)c2ccc(Cl)s2)cc1C(=O)N1CCC(c2ccc(C#N)cc2)CC1` [Example 45, 5-chloro-N-[3-[4-(4-cyanophenyl)piperidine-1-carbonyl]-4-methyl-phenyl]thiophene-2-sulfonamide] yielded an inhibition at 100 µM of 83%.
`Cc1ccc(C(=O)N2CCC(c3ccc(C(=O)N(C)C)cc3)CC2)cc1NS(=O)(=O)Cc1ccccc1` [Example 204, 4-[1-[3-(benzylsulfonylamino)-4-methylbenzoyl]piperidin-4-yl]-N,N-dimethylbenzamide] showed an inhibition at 100 µM of 78%.
The same measure, in the same setting: with `CS(=O)(=O)c1ccc(C(=O)N2CCC(c3ccc(C#N)cc3)CC2)cc1NS(=O)(=O)Cc1ccccc1` [Example 135, N-[5-[4-(4-cyanophenyl)piperidine-1-carbonyl]-2-methylsulfonyl-phenyl]-1-phenyl-methanesulfonamide] the figure was 100%; with `Cc1ccc(C(=O)N2CCC(c3ccc(C#N)cc3)CC2)cc1NS(=O)(=O)c1cccc(C(=O)N(C)C)c1` [Example 82, 3-[[5-[4-(4-cyanophenyl)piperidine-1-carbonyl]-2-methyl-phenyl]sulfamoyl]-N,N-dimethyl-benzamide], 93%; with `Cc1ccc(C(=O)N2CCC(c3ccc(C#N)cc3)CC2)cc1NS(=O)(=O)C1CCN(S(C)(=O)=O)CC1` [Example 121, N-[5-[4-(4-cyanophenyl)piperidine-1-carbonyl]-2-methyl-phenyl]-1-methylsulfonyl-piperidine-4-sulfonamide], 89%.
In turn, `Cc1ccc(C(=O)N2CCC(c3ccc(C#N)cc3)CC2)cc1NS(=O)(=O)c1cnoc1C` [Example 95, N-[5-[4-(4-cyanophenyl)piperidine-1-carbonyl]-2-methyl-phenyl]-5-methyl-1,2-oxazole-4-sulfonamide] had an inhibition at 100 µM of 73%.
Turning to `Cc1ccc(C(=O)N2CCC(c3ccc(C#N)cc3)CC2)cc1NS(=O)(=O)c1ccccc1C(=O)NC(C)C` [Example 208, 2-[[5-[4-(4-cyanophenyl)piperidine-1-carbonyl]-2-methylphenyl]sulfamoyl]-N-propan-2-ylbenzamide], at 100 µM the inhibition was 75%.
For the molecule `Cc1ccc(C(=O)N2CCC(c3ccc(-c4cnccn4)cc3)CC2)cc1NS(C)(=O)=O` [Example 174, N-[2-methyl-5-[4-(4-pyrazin-2-ylphenyl)piperidine-1-carbonyl]phenyl]methanesulfonamide], 100 µM produced 92% inhibition.
In turn, `Cc1ccc(C(=O)N2CCC(c3ccc(Oc4ccccn4)cc3)CC2)cc1NS(C)(=O)=O` [Example 187, N-[2-methyl-5-[4-(4-pyridin-2-yloxyphenyl)piperidine-1-carbonyl]phenyl]methanesulfonamide] yielded an inhibition at 100 µM of 100%.
Same read-out and setting: with `CCCCOc1ccc(S(=O)(=O)Nc2ccc(C)c(C(=O)N3CCC(c4ccc(C#N)cc4)CC3)c2)cc1` [Example 198, 4-butoxy-N-[3-[4-(4-cyanophenyl)piperidine-1-carbonyl]-4-methylphenyl]benzene-sulfonamide] the figure was 71%.
The molecule `CC(=O)NCc1ccc(C2CCN(C(=O)c3ccc(C)c(NS(C)(=O)=O)c3)CC2)cc1` [Example 164, N-[[4-[1-(3-methanesulfonamido-4-methylbenzoyl)piperidin-4-yl]phenyl]methyl]acetamide] had an inhibition at 100 µM of 83%.
The molecule `Cc1ccc(C(=O)N2CCC(c3ccc(SC(F)(F)F)cc3)CC2)cc1NS(C)(=O)=O` [Example 232, N-[2-methyl-5-[4-[4-(trifluoromethylsulfanyl)phenyl]piperidine-1-carbonyl]phenyl]methanesulfonamide] had an inhibition at 100 µM of 88.9%.
`Cc1ccc(C(=O)N2CCC(c3ccc(C#CCCO)cc3)CC2)cc1NS(C)(=O)=O` [Example 251, N-[5-[4-[4-(4-hydroxybut-1-ynyl)phenyl]piperidine-1-carbonyl]-2-methylphenyl]methanesulfonamide] showed an IC50 of 663 nM.
